Experimental data as given in patent US10174023B2, “Heterocyclic-imidazole compounds, pharmaceutical compositions thereof, preparation method therefor and use thereof” (SHANGHAI HUILUN LIFE SCIENCE & TECHNOLOGY CO., LTD, priority 2015, dated 2019).
pIC50: −log10 of the molar value. Where two headings read alike, the source gives them in different places.

How the values were obtained:
MDA-MB-436 cells = experiment: Cell proliferation inhibition assay (CellTiter-Glo, 120 hrs); assay type: cell-based, human; conditions: 120 hrs incubation, read-out: ED50 (MDA-MB-436); for pIC50: Homo sapiens
Procedure: Example 2. Cell Proliferation Inhibition Assay
The proliferation inhibitory activity of the compound of the present invention on the breast cancer cell line MDA-MB-436 of triple negative phenotype was tested in vitro.
1. Tumor cell line MDA-MB-436 supplied from HD Biosciences (Shanghai) Co., Ltd., and passed the Mycoplasma detection.
7. CellTiter-Glo Luminescent Cell Viability Assay, Promega, Catalog #: G7571.
Formulation of Compound Solutions
1. Each test compound was formulated into a 60 mM stock solution in DMSO, packaged, and stored in a freezer at −80°. The stock solution of each test compound was serially diluted in DMSO to give solutions at various concentration gradients, including 6 mM, 2 mM, 0.6 mM, 0.2 mM, 60 μM, and 20 μM.
2. Just before experiment, the formulated solution at various concentration gradients of each test compound was aseptically 100-fold diluted in the complete cell culture medium. In this case, the concentration gradients of the test compound included 60 μM, 20 μM, 6 μM, 2 μM, 0.6 μM, and 0.2 μM. These were 2× compound solutions, and could be used to treat the cells.
3. The stock solution of Compounds (1) to (21) and the control compound AZD2281 was serially diluted in DMSO to give solutions at various concentration gradients, including 20 μM, 2 μM, 0.2 μM, 0.02 μM, 0.002 μM, and 0.0002 μM. Before experiment, the formulated solution at various concentration gradients of each test compound was aseptically 100-fold diluted in the complete cell culture medium. The concentration gradients of the positive compound included 200 nM, 20 nM, 2 nM, 0.2 nM, 0.02 nM, and 0.002 nM. These were 2× compound solutions, and could be used to treat the cells.
1. One day before treatment with the compounds, the cells were inoculated into a 96-well plate at a density of 8000 cells/50 μl/well.
2. On the following day, the formulated 2× compound solutions were added, in accordance with a compound arrangement pattern, to the plate in an amount of 50 μl/well.
3. The plate was gently agitaged, and incubated for 120 hrs in an incubator at 37° C.
4. After incubation, the formulated reagent was added to the plate following instruction of the CellTiter Glo reagent, fully mixed, and incubated for 10 min at room temperature in the dark.
5. The plate was analyzed on a plate reader, the chemiluminescence was read, and the data was recorded.
The reading of each well needs to be converted into cell viability. The cell viability can be calculated using the following formula: […]
The processed data was subjected to non-linear regression analysis by using the GraphPad Prism5 analysis software, to obtain a dose-response curve; and the median effective dose (ED50) of test compounds for the MDA-MB-436 cells was calculated.

[1] = tested on: Human breast cancer MX-1 cells; experiment: Tumor inhibition in nude mice tumor model transplanted with human breast cancer MX-1 cells; assay type: in vivo, BALB/cA-nude mice; conditions: MX-1 xenograft in nude mice, oral, 50 mg/kg, once a day, consecutive 21 days
Procedure: (§1) Example 3. Test of Tumor Inhibition Effect of Compounds of the Present Invention in Mice The following experiments were conducted to evaluate and compare the effects of the present compound alone in mice tumor models transplanted with human breast cancer cell line MDA-MB-436, human breast cancer cell line MX-1 or human pancreatic cancer cell line CAPAN-1 in vivo.
(§2) Test Compound: Example Compound (4)
(§3) BALB/cA-nude mice, 6-7 weeks, female, available from Shanghai SLAC Laboratory Animal Co., Ltd. Certificate number: SCXK (Shanghai) 2012-0002. Breeding environment: SPF grade.
(§4) The Nude mice were subcutaneously inoculated with human breast cancer MDA-MB-436 cells, human breast cancer MX-1 cells or human pancreatic cancer CAPAN-1 cells. After the tumor grew to 100-200 mm^3, the animals were grouped at random (D0). The tumor volume was measured twice or thrice a week, the body weight of the mice was weighed, and the data was recorded. The tumor volume (V) is calculated by using a formula below: V=½×a×b^2 […]
(§5) in which a, and b denote the length and width. T/C(%)=(T−T0)/(C−C0)×100 in which T are C are the tumor volumes at the end of the experiment; and T0 and C0 are the tumor volumes at the beginning of the experiment.

[2] = tested on: Human breast cancer MDA-MB-436 cells; experiment: Tumor inhibition in nude mice tumor model transplanted with human breast cancer MDA-MB-436 cells; assay type: in vivo, BALB/cA-nude mice; conditions: MDA-MB-436 xenograft in nude mice, oral, 30 mg/kg, once a day, consecutive 14 days
Procedure: as §1, §2, §3, §4, §5

[3] = tested on: Human pancreatic cancer CAPAN-1 cells; experiment: Tumor inhibition in nude mice tumor model transplanted with human pancreatic cancer CAPAN-1 cells; assay type: in vivo, BALB/cA-nude mice; conditions: CAPAN-1 xenograft in nude mice, oral, 50 mg/kg, once a day, consecutive 21 days
Procedure: as §1, §2, §3, §4, §5

SMILES | pIC50 (MDA-MB-436 cells) | other results
Cc1nc2nc(N3CCN(C(=O)c4cccc(Cc5n[nH]c(=O)c6ccccc56)c4)CC3)ccc2[nH]1 [Compound (11), 4-(3-(4-(2-methyl-1H-imidazo[4,5-b]pyridin-5-yl)piperazine-1-carbonyl)benzyl)phthalazin-1(2H)-one] | < 4.60 | –
O=C(c1cc(Cc2n[nH]c(=O)c3ccccc23)ccc1F)N1CCN(C(=O)C2CC2)CC1 [AZD2281, reference compound] | < 4.60 | Tumor inhibition [1]: 13%; Tumor inhibition [2]: 83%; Tumor inhibition [3]: 57%
O=C(c1cc(Cc2n[nH]c(=O)c3ccccc23)ccc1F)N1CCN(c2ncc3[nH]cnc3n2)CC1 [Compound (8), 4-(3-(4-(7H-purin-2-yl)piperazine-1-carbonyl)-4-fluorobenzyl)phthalazin-1(2H)-one] | 5.85 | –
O=C(c1cccc(Cc2n[nH]c(=O)c3ccccc23)c1)N1CCN(c2ccc3[nH]c(=O)[nH]c3n2)CC1 [Compound (9)] | < 4.60 | –
O=C(c1cc(Cc2n[nH]c(=O)c3ccccc23)ccc1F)N1CCN(c2cnc3[nH]cnc3c2)CC1 [Compound (7), 4-(3-(4-(3H-imidazo[4,5-b]pyridin-6-yl)piperazine-1-carbonyl)-4-fluorobenzyl)phthalazin-1(2H)-one] | < 4.60 | –
O=C(c1cc(Cc2n[nH]c(=O)c3ccccc23)ccc1F)N1CCN(c2cc3nc[nH]c3cn2)CC1 [Compound (6), 4-(3-(4-(3H-imidazo[4,5-c]pyridin-6-yl)piperazine-1-carbonyl)-4-fluorobenzyl)phthalazin-1(2H)-one] | 4.74 | –
O=C(c1cccc(Cc2n[nH]c(=O)c3ccccc23)c1)N1CCN(c2ccc3[nH]nnc3n2)CC1 [Compound (10), 4-(3-(4-(1H-[1,2,3]triazolo[4,5-b]pyridin-5-yl)piperazine-1-carbonyl)-benzyl)phthalazin-1 (2H)-one] | < 4.60 | –
O=C(c1cccc(Cc2n[nH]c(=O)c3ccccc23)c1)N1CCN(c2ccc3[nH]c(C(F)(F)F)nc3n2)CC1 [Compound (12)] | – | IC50 (MDA-MB-436 cells): >25 µM
O=C(c1cc(Cc2n[nH]c(=O)c3ccccc23)ccc1F)N1CCN(c2ccc3[nH]c(C(F)(F)F)nc3n2)CC1 [Compound (3)] | – | IC50 (MDA-MB-436 cells): >25 µM
O=C(c1cc(Cc2n[nH]c(=O)c3ccccc23)ccc1F)N1CCN(c2ccc3[nH]cnc3n2)CC1 [Compound (4), 4-(3-(4-(1H-imidazo[4,5-b]pyridin-5-yl)piperazine-1-carbonyl)-4-fluorobenzyl)phthalazin-1(2H)-one] | 6.15 | Tumor inhibition [1]: 193%; Tumor inhibition [2]: 191%; Tumor inhibition [3]: 128%
O=C(c1cccc(Cc2n[nH]c(=O)c3ccccc23)c1)N1CCN(c2ccc3[nH]cnc3n2)CC1 [Compound (13), 4-(3-(4-(1H-imidazo[4,5-b]pyridin-5-yl)piperazine-1-carbonyl)benzyl)phthalazin-1(2H)-one] | 6.15 | –
Cc1nc2nc(N3CCN(C(=O)c4cc(Cc5n[nH]c(=O)c6ccccc56)ccc4F)CC3)ccc2[nH]1 [Compound (2), 4-(4-fluoro-3-(4-(2-methyl-1H-imidazo[4,5-b]pyridin-5-yl)piperazine-1-carbonyl)benzyl)phthalazin-1(2H)-one] | < 4.60 | –
O=C(c1cc(Cc2n[nH]c(=O)c3ccccc23)ccc1F)N1CCN(c2ccc3[nH]nnc3n2)CC1 [Compound (1), 4-(3-(4-(1H-[1,2,3]triazolo[4,5-b]pyridin-5-yl)piperazine-1-carbonyl)-4-fluorobenzyl)phthalazin-1(2H)-one] | < 4.60 | –
O=C(c1cc(Cc2n[nH]c(=O)c3ccccc23)ccc1F)N1CCN(c2ccc3[nH]c(=O)[nH]c3n2)CC1 [Compound (5), 4-(4-fluoro-3-(4-(2-oxo-2,3-dihydro-1H-imidazo[4,5-b]pyridin-5-yl)piperazine-1-carbonyl)benzyl)phthalazin-1(2H)-one] | < 4.60 | –

Now from value to molecule, other results behind:

pIC50 (MDA-MB-436 cells) | SMILES | other results
< 4.60 | COc1ccc(Cc2n[nH]c(=O)c3ccccc23)cc1C(=O)N1CCN(c2cnc3[nH]cnc3c2)CC1 [Compound (21), 4-(3-(4-(3H-imidazo[4,5-b]pyridin-6-yl)piperazine-1-carbonyl)-4-methoxybenzyl)phthalazin-1(2H)-one] | –
< 4.60 | O=C(c1cc(Cc2n[nH]c(=O)c3ccccc23)ccc1C(F)(F)F)N1CCN(c2ccc3[nH]nnc3n2)CC1 [Compound (16), 4-(3-(4-(1H-[1,2,3]triazolo[4,5-b]pyridin-5-yl)piperazine-1-carbonyl)-4-trifluoromethylbenzyl)phthalazin-1(2H)-one] | –
4.64 | O=C(c1cc(Cc2n[nH]c(=O)c3ccccc23)ccc1C(F)(F)F)N1CCN(c2ccc3[nH]cnc3n2)CC1 [Compound (15), 4-(3-(4-(1H-imidazo[4,5-b]pyridin-5-yl)piperazine-1-carbonyl)-4-trifluoromethylbenzyl)phthalazin-1(2H)-one] | –
< 4.60 | COc1ccc(Cc2n[nH]c(=O)c3ccccc23)cc1C(=O)N1CCN(c2cc3nc[nH]c3cn2)CC1 [Compound (18), 4-(3-(4-(3H-imidazo[4,5-c]pyridin-6-yl)piperazine-1-carbonyl)-4-methoxybenzyl)phthalazin-1(2H)-one] | –
< 4.60 | O=C(c1cc(Cc2n[nH]c(=O)c3ccccc23)ccc1C(F)(F)F)N1CCN(c2cc3nc[nH]c3cn2)CC1 [Compound (19), 4-(3-(4-(3H-imidazo[4,5-c]pyridin-6-yl)piperazine-1-carbonyl)-4-trifluoromethylbenzyl)phthalazin-1(2H)-one] | –
5.17 | COc1ccc(Cc2n[nH]c(=O)c3ccccc23)cc1C(=O)N1CCN(c2ccc3[nH]cnc3n2)CC1 [Compound (14), 4-(3-(4-(1H-imidazo[4,5-b]pyridin-5-yl)piperazine-1-carbonyl)-4-methoxybenzyl)phthalazin-1(2H)-one] | –
< 4.60 | O=C(c1cc(Cc2n[nH]c(=O)c3ccccc23)ccc1C(F)(F)F)N1CCN(c2ccc3[nH]c(=O)[nH]c3n2)CC1 [Compound (17), 4-(3-(4-(2-oxo-2,3-dihydro-1H-imidazo[4,5-b]pyridin-5-yl)piperazine-1-carbonyl)-4-trifluoromethylbenzyl)phthalazin-1(2H)-one] | –
< 4.60 | O=C(c1cc(Cc2n[nH]c(=O)c3ccccc23)ccc1C(F)(F)F)N1CCN(c2cnc3[nH]cnc3c2)CC1 [Compound (20), 4-(3-(4-(3H-imidazo[4,5-b]pyridin-6-yl)piperazine-1-carbonyl)-4-trifluoromethylbenzyl)phthalazin-1(2H)-one] | –
